Source: patent publication US12447238B2, “Antimicrobial tubular conduits” (SANIDRINK S.R.L., priority 2020, dated 2025)
≈ marks a conversion by molar mass, not a printed value. Peptide text beside a SMILES is read from it.

Key:
[1] = system: E. coli; test: Bactericidal activity of AMP peptides at 15 μM (CFU vs control), E. coli; assay type: cell-based; details: peptide 15 μM
Experimental: (§1) The bactericidal activity of further AMP peptides used in the invention, in particular of the RiLK31 peptide (RLRWVKIWKK, SEQ ID NO:31) and the RiLK3 peptide (RLRWVRIWRR, SEQ ID NO:3), was tested. The bactericidal activity was expressed as a percentage of viable cells in terms of CFU (Colony Forming Units) in a bacterial sample exposed to each peptide compared to those in a control bacterial sample in the absence of the peptide. All tests were carried out with the same peptide concentration, corresponding to 15 μM.

[2] = system: Staphylococcus; test: Bactericidal activity of AMP peptides at 15 μM (CFU vs control), Staphylococcus; assay type: cell-based; details: peptide 15 μM
Experimental: as §1

[3] = system: Salmonella; test: Bactericidal activity of AMP peptides at 15 μM (CFU vs control), Salmonella; assay type: cell-based; details: peptide 15 μM
Experimental: as §1

[4] = system: Listeria; test: Bactericidal activity of AMP peptides at 15 μM (CFU vs control), Listeria; assay type: cell-based; details: peptide 15 μM
Experimental: as §1

[5] = system: L. monocytogenes (LM2) (field strain); test: IC50 by broth microdilution and plate count against L. monocytogenes; assay type: cell-based, Listeria monocytogenes; details: 6 hours at 37° C. in Fraser Broth, plate count
Experimental: (§2) The bactericidal activity of RiLK1 peptides was assessed against both Gram positive (Listeria monocytogenes LM2 and Staphylococcus aureus) and Gram negative (Salmonella typhimurium and Escherichia coli) pathogenic bacteria.
(§3) The assessment of the concentration of RiLK1 peptides capable of inhibiting 50% of bacterial growth (IC50) was performed by the broth microdilution assay as described in Wang HX and Ng TB (2003, Peptides 24:969-972).
(§4) Standard deviations were obtained from triplicate experiments for each peptide dilution, and the IC50s were determined using GraphPad Prism version 6.00 (Graph-Pad Software, La Jolla California USA).
(§5) All bactericidal activity assays were performed using 2-3 log CFUs (Colony Forming Units), which represents a realistic approximation of the contamination levels that may be contained in the tubular conduits for food or medical use.
All experimental conditions investigated used the plate count method to estimate the bactericidal activity of the peptides. Specifically, the numbers of colonies grown on agar plates seeded with the bacterial suspensions in the absence or presence of the individual peptide dilutions were counted and compared. Standard deviations were determined using statistical software. […]

[6] = system: E. coli (ATCC); assay type: cell-based, Escherichia coli; details: 6 h
Experimental: as §2, §3, §4, §5
All experimental conditions investigated used the plate count method to estimate the bactericidal activity of the peptides. Specifically, the numbers of colonies grown on agar plates seeded with the bacterial suspensions in the absence or presence of the individual peptide dilutions were counted and compared. Standard deviations were determined using statistical software.
A control stock suspension was prepared in which 10^3 CFUs of E. coli were inoculated in 10 ml of BPW (Oxoid, Basingstoke, UK). […]

[7] = system: L. monocytogenes (LM2) (field strain); test: Minimum Bactericidal Concentration (MBC) against L. monocytogenes; assay type: cell-based, Listeria monocytogenes; details: 99.9% inhibition of bacterial growth on plates
Experimental: (§6) The evaluation of the Minimum Bactericidal Concentration (MBC), i.e., the lowest concentration of antimicrobial agent capable of 99.9% inhibition of bacterial growth on plates, was carried out as described in Bilikova et al, (2015, Peptides 68:190-196).

[8] = system: E. coli (ATCC); test: Minimum Bactericidal Concentration (MBC) against E. coli; assay type: cell-based, Escherichia coli; details: 99.9% inhibition of bacterial growth on plates
Experimental: as §6

[9] = system: Aspergillus brasiliensis (ATCC 9341); assay type: cell-based
Experimental: The antifungal activity of the RiLK1 peptide was determined against Aspergillus brasiliensis. For this purpose, a stock culture was prepared in which 10^5 CFUs of A. brasiliensis were inoculated in 10 ml of buffered peptone water. A reference strain (ATCC 9341) was used for this fungal species. The culture was incubated for 6 h at 37° C. with the RiLK1 peptide at 25 μM concentrations.
At the same time, control samples were incubated without adding the peptide. 100 μl of the samples thus prepared were seeded on DG18 plates (Dichloran 18% Glycerol Agar—ISO 21527-2) and incubated at 25° C. for 7 days.
(§7) All experimental conditions investigated used the plate count method to estimate the fungicidal activity of the peptide. Specifically, the numbers of colonies grown on agar plates seeded with the fungal suspensions in the absence or presence of the individual peptide dilutions were counted and compared. The standard deviations of the triplicate incubations of each plate were determined using statistical software. The evaluation of the Minimum Fungicidal Concentration (MFC), i.e., the lowest concentration of antifungal agent capable of 99.9% inhibition of fungal growth on plates, was carried out as described in Bilikova et al, (2015, Peptides 68:190-196).

[10] = system: Candida albicans (ATCC 14053); assay type: cell-based
Experimental: The inhibitory activity of the RiLK1 peptide was determined against the yeast Candida albicans. A stock culture was prepared in which 10^5 CFUs of C. albicans were inoculated in 10 ml of buffered peptone water. A reference strain (ATCC 14053) was used for this species. The culture was incubated for 6 h at 37° C. with the RiLK1 peptide at 25 μM concentrations. At the same time, control samples were incubated without adding the peptide. 100 μl of the samples thus prepared were seeded on DG18 plates (Dichloran 18% Glycerol Agar—ISO 21527-2) and incubated at 25° C. for 7 days.
as §7, with “antimycotic” for “fungicidal”, “cultures” for “fungal suspensions”

Compound	bactericidal activity expressed as a percentage of viable cells (CFU) vs control [1]	bactericidal activity expressed as a percentage of viable cells (CFU) vs control [2]	bactericidal activity expressed as a percentage of viable cells (CFU) vs control [3]	bactericidal activity expressed as a percentage of viable cells (CFU) vs control [4]	IC50 [5]	IC50 [6]	MBC [7]	MBC [8]	post-treatment decrease in the fungal load ([9]; A. brasiliensis, 25 μM peptide, 6 h at 37° C.)	Drop Log CFU/ml ([9]; A. brasiliensis, 10^5 CFUs, 25 μM peptide, 6 h at 37° C.)	MFC ([9]; ATCC 9341, 6 h)	MFC ([10]; ATCC 14053, 6 h)	post-treatment decrease in the fungal load ([10]; C. albicans, 25 μM peptide, 6 h at 37° C.)	Drop Log CFU/ml ([10]; C. albicans, 10^5 CFUs, 25 μM peptide, 6 h at 37° C.)
RLRWVRIWRR (AMP) [RiLK3]	100%	96%	100%	99%	–	–	–	–	–	–	–	–	–	–
RLRWVKIWKK (AMP) [RiLK31]	100%	83%	100%	98.8%	–	–	–	–	–	–	–	–	–	–
CC[C@H](C)[C@H](NC(=O)[C@H](CCCNC(=N)N)NC(=O)[C@@H](NC(=O)[C@H](Cc1c[nH]c2ccccc12)NC(=O)[C@H](CCCCN)NC(=O)[C@H](CC(C)C)NC(=O)[C@@H](N)CCCNC(=N)N)C(C)C)C(=O)N[C@@H](Cc1c[nH]c2ccccc12)C(=O)N[C@@H](CCCNC(=N)N)C(=O)N[C@@H](CCCNC(=N)N)C(N)=O [RiLK1, RLKWVRIWRR] (H-RLKWVRIWRR-NH2; N-terminus assumed)	100%	96.9%	100%	99.5%	460 nM	1200 nM	2 µM (≈ 2.94 µg/mL)	2 µM (≈ 2.94 µg/mL)	5 Log	5 Log CFU/ml	less than or equal to 25 μM	less than or equal to 25 μM	5 Log	5 Log CFU/ml
